Test system: Puccinia triticina; Synonym: Puccinia recondite f. Sp. Tritici
Assay: Wheat Brown Rust (PUCCRT) disease control
Type: in vivo
Conditions: Puccinia triticina, topical, 24 h, 1 Day Protectant, rate 100 ppm; read-out: PUCCRT 1 DP disease control
Description: (§1) Technical grades of materials were dissolved in acetone, which were then mixed with nine volumes of water containing 110 ppm Triton X-100. The fungicide solutions were applied onto wheat seedlings using an automated booth sprayer to run-off. All sprayed plants were allowed to air dry prior to further handling. All fungicides were evaluated using the aforementioned method for their activity vs. all target diseases. Wheat leaf blotch and brown rust activity were also evaluated using track spray applications, in which case the fungicides were formulated as EC formulations, containing 0.1% Trycol 5941 in the spray solutions. Wheat plants (variety Yuma) were grown from seed in a greenhouse in 50% mineral soil/50% soil-less Metro mix until the first leaf was fully emerged, with 7-10 seedlings per pot. These plants were inoculated with an aqueous spore suspension of Septoria tritici either prior to or after fungicide treatments. After inoculation the plants were kept in 100% relative humidity (one day in a dark dew chamber followed by two to three days in a lighted dew chamber at 20° C.) to permit spores to germinate and infect the leaf. The plants were then transferred to a greenhouse set at 20° C. for disease to develop. When disease symptoms were fully expressed on the 1st leaves of untreated plants, infection levels were assessed on a scale of 0 to 100 percent disease severity. Percent disease control was calculated using the ratio of disease severity on treated plants relative to untreated plants. Wheat plants (variety Yuma) were grown from seed in a greenhouse in 50% mineral soil/50% soil-less Metro mix until the first leaf was fully emerged, with 7-10 seedlings per pot. These plants were inoculated with an aqueous spore suspension of Puccinia triticina either prior to or after fungicide treatments. After inoculation the plants were kept in a dark dew room at 22° C. with 100% relative humidity overnight to permit spores to germinate and infect the leaf. The plants were then transferred to a greenhouse set at 24° C. for disease to develop. Fungicide formulation, application and disease assessment followed the procedures as described in the Example A.

| Compound | pest or weed control at 100 ppm [%] |
| --- | --- |
| COc1ccnc(C(=O)N[C@H]2CCC[C@H](CCC(C)C)[C@@H](OCC3CC3)[C@H](C)OC2=O)c1O [Compound F3] | 80 to 100 |
| COc1ccnc(C(=O)N[C@H]2CCC[C@H](Cc3ccc(F)cc3)[C@@H](OC(=O)C3CCCC3)[C@H](C)OC2=O)c1O [Compound F16] | 80 to 100 |
| COc1ccnc(C(=O)N[C@H]2CCC[C@H](CCC(C)C)[C@@H](Oc3ccccc3)[C@H](C)OC2=O)c1OCOC(=O)C(C)C [Compound F147] | 80 to 100 |
| COc1ccnc(C(=O)N[C@H]2CCC[C@H](C)[C@@H](OCc3ccccc3)[C@H](C)OC2=O)c1OCOC(C)=O [Compound F125] | 80 to 100 |
| COc1ccnc(C(=O)N[C@H]2CCC[C@H](CC3CCCCC3)[C@@H](OCC3CC3)[C@H](C)OC2=O)c1OCOC(C)=O [Compound F97] | 80 to 100 |

Same assay, conditions: Puccinia triticina, topical, 24 h, 1 Day Protectant, rate 121.5 g/H; read-out: PUCCRT 1 DP disease control

| Compound | pest or weed control at 121.5 g/ha [%] |
| --- | --- |
| COc1ccnc(C(=O)N[C@H]2CCC[C@H](CCC(C)C)[C@@H](Oc3ccccc3)[C@H](C)OC2=O)c1OCOC(=O)C(C)C [Compound F147] | 80 to 100 |
| COc1ccnc(C(=O)N[C@H]2CCC[C@H](C)[C@@H](OCc3ccccc3)[C@H](C)OC2=O)c1OCOC(C)=O [Compound F125] | 80 to 100 |
| COc1ccnc(C(=O)N[C@H]2CCC[C@H](CC3CCCCC3)[C@@H](OCC3CC3)[C@H](C)OC2=O)c1OCOC(C)=O [Compound F97] | 80 to 100 |

Same assay, conditions: Puccinia triticina, topical, 72 h, 3 Day Curative, rate 100 ppm; read-out: PUCCRT 3 DC disease control

| Compound | pest or weed control at 100 ppm [%] |
| --- | --- |
| COc1ccnc(C(=O)N[C@H]2CCC[C@H](CCC(C)C)[C@@H](OCC3CC3)[C@H](C)OC2=O)c1O [Compound F3] | 80 to 100 |
| COc1ccnc(C(=O)N[C@H]2CCC[C@H](Cc3ccc(F)cc3)[C@@H](OC(=O)C3CCCC3)[C@H](C)OC2=O)c1O [Compound F16] | 0 to 80 |
| COc1ccnc(C(=O)N[C@H]2CCC[C@H](CCC(C)C)[C@@H](Oc3ccccc3)[C@H](C)OC2=O)c1OCOC(=O)C(C)C [Compound F147] | 80 to 100 |
| COc1ccnc(C(=O)N[C@H]2CCC[C@H](C)[C@@H](OCc3ccccc3)[C@H](C)OC2=O)c1OCOC(C)=O [Compound F125] | 80 to 100 |
| COc1ccnc(C(=O)N[C@H]2CCC[C@H](CC3CCCCC3)[C@@H](OCC3CC3)[C@H](C)OC2=O)c1OCOC(C)=O [Compound F97] | 80 to 100 |

Same assay, conditions: Puccinia triticina, topical, 72 h, 3 Day Curative, rate 121.5 g/H; read-out: PUCCRT 3 DC disease control

| Compound | pest or weed control at 121.5 g/ha [%] |
| --- | --- |
| COc1ccnc(C(=O)N[C@H]2CCC[C@H](CCC(C)C)[C@@H](Oc3ccccc3)[C@H](C)OC2=O)c1OCOC(=O)C(C)C [Compound F147] | 0 to 80 |
| COc1ccnc(C(=O)N[C@H]2CCC[C@H](C)[C@@H](OCc3ccccc3)[C@H](C)OC2=O)c1OCOC(C)=O [Compound F125] | 80 to 100 |
| COc1ccnc(C(=O)N[C@H]2CCC[C@H](CC3CCCCC3)[C@@H](OCC3CC3)[C@H](C)OC2=O)c1OCOC(C)=O [Compound F97] | 80 to 100 |

Test system: Mycosphaerella graminicola; Anamorph: Septoria tritici
Assay: Leaf Blotch of Wheat (SEPTTR) disease control
Type: in vivo
Conditions: Zymoseptoria tritici, 24 h, 1 Day Protectant, rate 100 ppm; read-out: SEPTTR 1 DP disease control
Description: as §1, with “plants.” for “plants. Wheat plants (variety Yuma) were grown from seed in a greenhouse in 50% mineral soil/50% soil-less Metro mix until the first leaf was fully emerged, with 7-10 seedlings per pot. These plants were inoculated with an aqueous spore suspension of Puccinia triticina either prior to or after fungicide treatments. After inoculation the plants were kept in a dark dew room at 22° C. with 100% relative humidity overnight to permit spores to germinate and infect the leaf. The plants were then transferred to a greenhouse set at 24° C. for disease to develop. Fungicide formulation, application and disease assessment followed the procedures as described in the Example A.”

| Compound | pest or weed control at 100 ppm [%] |
| --- | --- |
| COc1ccnc(C(=O)N[C@H]2CCC[C@H](CCC(C)C)[C@@H](OCC3CC3)[C@H](C)OC2=O)c1O [Compound F3] | 80 to 100 |
| COc1ccnc(C(=O)N[C@H]2CCC[C@H](Cc3ccc(F)cc3)[C@@H](OC(=O)C3CCCC3)[C@H](C)OC2=O)c1O [Compound F16] | 80 to 100 |
| COc1ccnc(C(=O)N[C@H]2CCC[C@H](CCC(C)C)[C@@H](Oc3ccccc3)[C@H](C)OC2=O)c1OCOC(=O)C(C)C [Compound F147] | 80 to 100 |
| COc1ccnc(C(=O)N[C@H]2CCC[C@H](C)[C@@H](OCc3ccccc3)[C@H](C)OC2=O)c1OCOC(C)=O [Compound F125] | 80 to 100 |
| COc1ccnc(C(=O)N[C@H]2CCC[C@H](CC3CCCCC3)[C@@H](OCC3CC3)[C@H](C)OC2=O)c1OCOC(C)=O [Compound F97] | 80 to 100 |

Same assay, conditions: Zymoseptoria tritici, 24 h, 1 Day Protectant, rate 121.5 g/H; read-out: SEPTTR 1 DP disease control

| Compound | pest or weed control at 121.5 g/ha [%] |
| --- | --- |
| COc1ccnc(C(=O)N[C@H]2CCC[C@H](CCC(C)C)[C@@H](Oc3ccccc3)[C@H](C)OC2=O)c1OCOC(=O)C(C)C [Compound F147] | 80 to 100 |
| COc1ccnc(C(=O)N[C@H]2CCC[C@H](C)[C@@H](OCc3ccccc3)[C@H](C)OC2=O)c1OCOC(C)=O [Compound F125] | 80 to 100 |
| COc1ccnc(C(=O)N[C@H]2CCC[C@H](CC3CCCCC3)[C@@H](OCC3CC3)[C@H](C)OC2=O)c1OCOC(C)=O [Compound F97] | 80 to 100 |

Same assay, conditions: Zymoseptoria tritici, 72 h, 3 Day Curative, rate 100 ppm; read-out: SEPTTR 3 DC disease control

| Compound | pest or weed control at 100 ppm [%] |
| --- | --- |
| COc1ccnc(C(=O)N[C@H]2CCC[C@H](CCC(C)C)[C@@H](OCC3CC3)[C@H](C)OC2=O)c1O [Compound F3] | 80 to 100 |
| COc1ccnc(C(=O)N[C@H]2CCC[C@H](Cc3ccc(F)cc3)[C@@H](OC(=O)C3CCCC3)[C@H](C)OC2=O)c1O [Compound F16] | 0 to 80 |
| COc1ccnc(C(=O)N[C@H]2CCC[C@H](CCC(C)C)[C@@H](Oc3ccccc3)[C@H](C)OC2=O)c1OCOC(=O)C(C)C [Compound F147] | 80 to 100 |
| COc1ccnc(C(=O)N[C@H]2CCC[C@H](C)[C@@H](OCc3ccccc3)[C@H](C)OC2=O)c1OCOC(C)=O [Compound F125] | 80 to 100 |
| COc1ccnc(C(=O)N[C@H]2CCC[C@H](CC3CCCCC3)[C@@H](OCC3CC3)[C@H](C)OC2=O)c1OCOC(C)=O [Compound F97] | 80 to 100 |

Same assay, conditions: Zymoseptoria tritici, 72 h, 3 Day Curative, rate 121.5 g/H; read-out: SEPTTR 3 DC disease control

| Compound | pest or weed control at 121.5 g/ha [%] |
| --- | --- |
| COc1ccnc(C(=O)N[C@H]2CCC[C@H](CCC(C)C)[C@@H](Oc3ccccc3)[C@H](C)OC2=O)c1OCOC(=O)C(C)C [Compound F147] | 80 to 100 |
| COc1ccnc(C(=O)N[C@H]2CCC[C@H](C)[C@@H](OCc3ccccc3)[C@H](C)OC2=O)c1OCOC(C)=O [Compound F125] | 80 to 100 |
| COc1ccnc(C(=O)N[C@H]2CCC[C@H](CC3CCCCC3)[C@@H](OCC3CC3)[C@H](C)OC2=O)c1OCOC(C)=O [Compound F97] | 80 to 100 |

From patent US9265253B2, “Use of macrocyclic picolinamides as fungicides” (DOW AGROSCIENCES LLC, priority 2013, dated 2016)
